Patent EP4609864A1, “PHARMACEUTICAL COMPOSITION CONTAINING ISOQUINOLINONE COMPOUND, AND PREPARATION METHOD THEREFOR” (Jiangsu Hengrui Pharmaceuticals Co., Ltd., priority 2022, dated 2024)

Key:
[1] = test system: TNFα; assay: Mouse model of LPS-induced acute pulmonary inflammation: TNFα level in BALF; assay type: in vivo, BALB/c mouse; conditions: 1.0 mg/kg intratracheal nebulized, 1 h before LPS; BALF 6 h after modeling; vs. model group
Method: (§1) The study utilized a BALB/c mouse model of LPS-induced acute pulmonary inflammation to evaluate the inhibitory effect of the compound on pulmonary inflammation based on immune cell counts and TNFα cytokine levels in bronchoalveolar lavage fluid (BALF). The mice were divided into 6 groups, with 8 mice per group, including: a normal control group, a model control group, an RPL554 group (1.0 mg/kg), and low, medium, and high dose groups of compound A (0.3 mg/kg, 1.0 mg/kg, and 3.0 mg/kg). One hour after intratracheal administration of nebulized drugs, the mice were stimulated by nebulized LPS for modeling. Six hours after modeling, BALF was collected from the animals, and the total cells, the neutrophils, and the eosinophils in BALF were counted, along with the measurement of the pro-inflammatory cytokine TNFα level in BALF.

[2] = test system: immune cells in BALF; assay: Mouse model of LPS-induced acute pulmonary inflammation: immune cell counts in BALF; assay type: in vivo, BALB/c mouse; conditions: 1.0 mg/kg intratracheal nebulized, 1 h before LPS; BALF 6 h after modeling; vs. model group
Method: as §1

[3] = phase II; patients with chronic obstructive pulmonary disease; cited from earlier work

COc1cc2c(cc1OC)-c1c/c(=N\c3c(C)cc(C)cc3C)n(CCNC(N)=O)c(=O)n1CC2 [RPL554, 9,10-dimethoxy-2-(2,4,6-trimethylphenylimino)-3-(N-carbamoyl-2-aminoethyl)-3,4,6,7-tetrahydro-2H-pyrimido[6,1-α]isoquinolin-4-one]
TNFα level in BALF [1]: downward trend | number of eosinophils in BALF [2]: significantly lower | number of neutrophils in BALF [2]: significantly lower | number of total cells in BALF [2]: significantly lower | bronchodilation and symptoms [3]: significantly improve bronchodilation and symptoms | tolerability, adverse events [3]: well tolerated
